In ChEMBL document CHEMBL1147576, “Synthesis and evaluation of S-4-(3-thienyl)phenyl-alpha-methylacetic acid” (Bioorg Med Chem Lett, 2004):

molecular target: T1, Prostaglandin G/H synthase 1 (Ovis aries, UniProt P05979); test: In vitro inhibitory concentration against ram seminal vesicle prostaglandin G/H synthase 1; assay type: tissue-based
T1 sequence (P05979 whole entry): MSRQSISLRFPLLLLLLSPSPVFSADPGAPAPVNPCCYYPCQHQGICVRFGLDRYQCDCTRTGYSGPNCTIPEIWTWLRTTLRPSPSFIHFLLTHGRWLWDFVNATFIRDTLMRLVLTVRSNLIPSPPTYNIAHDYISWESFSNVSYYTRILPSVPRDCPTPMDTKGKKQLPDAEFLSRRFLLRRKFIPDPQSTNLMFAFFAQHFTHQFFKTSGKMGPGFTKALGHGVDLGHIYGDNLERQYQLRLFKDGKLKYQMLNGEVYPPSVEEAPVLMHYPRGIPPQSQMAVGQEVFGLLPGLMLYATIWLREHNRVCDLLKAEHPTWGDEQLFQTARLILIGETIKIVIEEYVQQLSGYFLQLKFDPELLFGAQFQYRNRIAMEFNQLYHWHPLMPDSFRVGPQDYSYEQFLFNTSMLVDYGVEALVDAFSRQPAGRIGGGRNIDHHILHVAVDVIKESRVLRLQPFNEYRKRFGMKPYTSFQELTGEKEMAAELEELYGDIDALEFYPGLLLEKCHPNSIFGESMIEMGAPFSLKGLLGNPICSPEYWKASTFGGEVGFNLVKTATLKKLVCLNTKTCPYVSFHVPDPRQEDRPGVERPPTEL

| IC50 [µM] | Structure (SMILES) |
| --- | --- |
| 45.2 | C[C@H](C(=O)O)c1ccc(-c2ccsc2)cc1 |

test system: Rattus norvegicus; test: Effective dose for Anti-inflammatory activity was determined by carrageenan induced rat hind paw edema model; assay type: functional

| Structure (SMILES) | ED50 [mg/kg] |
| --- | --- |
| CC(C)Cc1ccc(C(C)C(=O)O)cc1 (configuration not stated) [IBUPROFEN] | 33.2 |
| CC(C)Cc1ccc([C@H](C)C(=O)O)cc1 [DEXIBUPROFEN] | 7.08 |
| COc1ccc2cc(C(C)C(=O)O)ccc2c1 (configuration not stated) | 2.35 |
| COc1ccc2cc([C@H](C)C(=O)O)ccc2c1 [NAPROXEN] | 0.99 |
| C[C@H](C(=O)O)c1ccc(-c2ccsc2)cc1 | 1.85 |
| CC(C(=O)O)c1ccc(-c2ccsc2)cc1 (configuration not stated) [ATLIPROFEN] | 5.74 |
